Test results taken from patent publication US8084457B2, “Pharmaceutically active 4,6-disubstituted aminopyrimidine derivatives as modulators of protein kinases” (Lead Discovery Center GmbH, priority 2003, dated 2011).

How the values were obtained:
[1] = molecular target: T1, CDK9/Cyclin T1 (Homo sapiens, UniProt P50750); experiment: Kinase assay using CDK9/Cyclin T1; type: biochemical; conditions: read-out: CDK9 (activity range)
T1 construct: made in house; host or cells: HEK293 cells, recombinant adenovirus
Source text: Cloning of CDK9 and Cyclin T1:
Both cDNA fragments were cloned by PCR into pDONR201 vectors using the gateway recombination system (Invitrogen) according to the manufacturer's recommendations. The fragments were subcloned into a gateway-adapted shuttle vector (pPM7) for production of recombinant adenovirus. All plasmids were verified by restriction digests and sequencing analysis.
Expression and Purification of CDK9/Cyclin T1 Proteins:
Expression and purification was in principle performed as described by Cotten et al. (M. Cotten et al., Nucleic acids research, 2003, 31(28), 128).
Kinase Assay Using CDK9/Cyclin T1:
Kinase assays were performed in principle as described by Cotten et al. (M. Cotten et al., Nucleic acids research, 2003, 31(28), 128).

[2] = molecular target: T2, CDK2/CyclinA (Homo sapiens, UniProt P24941); experiment: Kinase assay determining CDK2/CyclinA activity; type: biochemical; conditions: read-out: CDK2 (activity range)
T2 construct: purchased Proqinase
Protocol: Kinase Assays Determining CDK2/CyclinA and CDK5/p35 Activity:
Kinase assays were performed as described by the manufacturers recommendations (Proqinase for CDK2/CyclinA and Upsate for CDK5/p35).

T1 sequence (P50750 whole entry): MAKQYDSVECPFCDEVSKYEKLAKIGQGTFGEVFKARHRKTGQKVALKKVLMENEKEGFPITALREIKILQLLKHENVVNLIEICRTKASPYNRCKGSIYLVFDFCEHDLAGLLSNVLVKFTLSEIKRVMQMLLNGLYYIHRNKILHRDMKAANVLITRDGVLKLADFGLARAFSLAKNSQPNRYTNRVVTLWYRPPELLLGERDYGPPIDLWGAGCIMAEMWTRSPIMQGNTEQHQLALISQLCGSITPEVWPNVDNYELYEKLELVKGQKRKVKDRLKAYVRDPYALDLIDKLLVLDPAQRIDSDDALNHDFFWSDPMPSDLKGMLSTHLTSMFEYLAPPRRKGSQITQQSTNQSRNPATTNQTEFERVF
T1 sequence (O60563 whole entry partner): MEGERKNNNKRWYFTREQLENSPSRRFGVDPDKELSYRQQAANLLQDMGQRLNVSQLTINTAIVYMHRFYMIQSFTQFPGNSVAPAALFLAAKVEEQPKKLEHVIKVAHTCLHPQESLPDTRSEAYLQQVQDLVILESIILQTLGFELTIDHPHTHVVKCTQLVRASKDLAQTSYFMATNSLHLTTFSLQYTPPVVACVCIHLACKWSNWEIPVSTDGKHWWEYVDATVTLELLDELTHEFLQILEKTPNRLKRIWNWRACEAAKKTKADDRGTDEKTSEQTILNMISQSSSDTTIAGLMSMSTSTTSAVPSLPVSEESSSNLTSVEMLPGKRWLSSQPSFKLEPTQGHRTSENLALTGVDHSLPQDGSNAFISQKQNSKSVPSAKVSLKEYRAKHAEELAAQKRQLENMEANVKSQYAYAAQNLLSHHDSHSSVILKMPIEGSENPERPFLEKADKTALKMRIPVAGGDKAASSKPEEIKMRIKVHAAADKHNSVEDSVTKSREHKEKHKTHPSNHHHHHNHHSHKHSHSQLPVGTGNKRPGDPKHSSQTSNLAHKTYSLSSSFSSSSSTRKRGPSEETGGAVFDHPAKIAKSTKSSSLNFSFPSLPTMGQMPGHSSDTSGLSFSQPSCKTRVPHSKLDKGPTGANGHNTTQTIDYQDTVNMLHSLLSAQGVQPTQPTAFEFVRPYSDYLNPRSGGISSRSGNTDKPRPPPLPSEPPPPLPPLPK

Compound	IC50 [1]	IC50 [2]
COc1ncc(-c2cc(Nc3ccc(C(=O)N[C@@H]4CCCC[C@H]4N)cc3)ncn2)cn1 (racemic) [(213)]	10 to 250 µM	–
COc1ccc(-c2cc(Nc3ccc(NS(=O)(=O)c4ccc(C)cc4)cc3)ncn2)cc1 [(1)]	10 to 250 µM	1 to 10 µM
COc1cccc(-c2cc(Nc3ccc(NS(=O)(=O)c4ccc(C)cc4)cc3)ncn2)c1 [(2)]	10 to 250 µM	10 to 250 µM
Nc1ccc(C(=O)Nc2ccc(Nc3cc(-c4ccccc4OCc4ccccc4)ncn3)cc2)cc1 [(4)]	0.001 to 1 µM	1 to 10 µM
COc1ccc(-c2cc(Nc3ccc(NC(=O)c4ccc(N)cc4)cc3)ncn2)cc1 [(6)]	0.001 to 1 µM	1 to 10 µM
c1ccc(COc2ccccc2-c2cc(NCCc3ccncc3)ncn2)cc1 [(7)]	0.001 to 1 µM	1 to 10 µM
Cc1ccc(S(=O)(=O)Nc2ccc(Nc3cc(-c4ccc(CCC(=O)O)cc4)ncn3)cc2)cc1 [(17)]	10 to 250 µM	10 to 250 µM
Cc1ccc(S(=O)(=O)Nc2ccc(Nc3cc(Cl)ncn3)cc2)cc1 [(24)]	10 to 250 µM	1 to 10 µM
Nc1ccc(C(=O)Nc2ccc(Nc3cc(Cl)ncn3)cc2)cc1 [(25)]	10 to 250 µM	10 to 250 µM
Nc1ccc(C(=O)Nc2ccc(Nc3cc(/C=C/c4ccccc4)ncn3)cc2)cc1 [(32)]	10 to 250 µM	10 to 250 µM
COc1ccc(C(C)C)cc1-c1cc(Nc2ccc(NC(=O)c3ccc(N)cc3)cc2)ncn1 [(35)]	10 to 250 µM	10 to 250 µM
CC(C)(C)C(=O)Nc1ccc(Nc2cc(Cl)ncn2)cc1 [(72)]	–	10 to 250 µM
CC(C)(C)C(=O)Nc1ccc(Nc2cc(-c3cccnc3)ncn2)cc1 [(73)]	–	10 to 250 µM
CC(C)(C)C(=O)Nc1ccc(Nc2cc(-c3cccc(C(=O)O)c3)ncn2)cc1 [(75)]	10 to 250 µM	–
CN1CCN(c2cc(Nc3ccc(NC(=O)C(C)(C)C)cc3)ncn2)CC1 [(78)]	–	10 to 250 µM
COc1ccccc1-c1cc(Nc2ccc(NC(=O)Nc3ccc4c(c3)OCO4)cc2)ncn1 [(111)]	–	10 to 250 µM
COc1ccccc1-c1cc(Nc2ccc(NC(=O)c3cc4ccccc4oc3=O)cc2)ncn1 [(129)]	10 to 250 µM	–
CC(C)(C)C(=O)Nc1ccc(Nc2cc(-c3ccccc3-c3ccccc3)ncn2)cc1 [(132)]	10 to 250 µM	–
COc1ccccc1-c1ncnc(Nc2ccc(NC(=O)c3ccc(N)cc3)cc2)c1C [(149)]	10 to 250 µM	–

Compound	IC50 [1]	IC50 [2]
CCCS(=O)(=O)Nc1ccc(Nc2ncnc(-c3ccccc3OC)c2C)cc1 [(160)]	10 to 250 µM	–
O=C(Nc1ccc(Nc2cc(-c3ccc(OCc4ccccc4)cc3)ncn2)cc1)[C@@H]1CCCCN1 [(173)]	10 to 250 µM	–
CC(=O)c1cccc(-c2cc(Nc3ccc(NC(=O)[C@@H]4CCCCN4)cc3)ncn2)c1 [(179)]	10 to 250 µM	–
O=C(NC1CCCC1)c1ccc(-c2cc(Nc3ccc(NC(=O)[C@@H]4CCCCN4)cc3)ncn2)cc1 [(180)]	1 to 10 µM	–
CC(=O)c1ccc(-c2cc(Nc3ccc(NC(=O)[C@@H]4CCCCN4)cc3)ncn2)s1 [(191)]	1 to 10 µM	–
O=C(Nc1ccc(Nc2cc(-c3cccc(CO)c3)ncn2)cc1)[C@@H]1CCCCN1 [(193)]	1 to 10 µM	–
COCc1ccccc1-c1cc(Nc2ccc(C)c(NS(C)(=O)=O)c2)ncn1 [(197)]	1 to 10 µM	–
COc1ccc(-c2ncnc(Nc3ccc(NC(=O)c4ccc(N)cc4)cc3)c2C)cc1 [(200)]	10 to 250 µM	–
COCc1cccc(-c2cc(Nc3ccc(NC(=O)[C@@H]4CCCCN4)cc3)ncn2)c1 [(203)]	1 to 10 µM	–
COc1ccccc1-c1cc(Nc2ccc(N)cc2)nc(C)n1 [(204)]	10 to 250 µM	–
COc1ccc(-c2cc(Nc3ccc(N)cc3)nc(C)n2)cc1 [(205)]	10 to 250 µM	–
Nc1cccc(-c2cc(Nc3ccc(C(=O)NC4CCCCC4N)cc3)ncn2)c1 (centres unmarked) [(206)]	1 to 10 µM	–
CC(=O)Nc1cccc(-c2cc(Nc3ccc(C(=O)NC4CCCCC4N)cc3)ncn2)c1 (centres unmarked) [(207)]	1 to 10 µM	–
NC1CCCCC1NC(=O)c1ccc(Nc2cc(-c3ccc(OCc4ccccc4)cc3)ncn2)cc1 (centres unmarked) [(208)]	10 to 250 µM	–
N#Cc1cccc(-c2cc(Nc3ccc(C(=O)NC4CCCCC4N)cc3)ncn2)c1 (centres unmarked) [(209)]	1 to 10 µM	–
COCc1ccccc1-c1cc(Nc2ccc(C(=O)NC3CCCCC3N)cc2)ncn1 (centres unmarked) [(210)]	1 to 10 µM	–
CN(C)Cc1cccc(-c2cc(Nc3ccc(NC(=O)[C@@H]4CCCCN4)cc3)ncn2)c1 [(211)]	1 to 10 µM	–
NC1CCCCC1NC(=O)c1ccc(Nc2cc(-c3cnc4ccccc4c3)ncn2)cc1 (centres unmarked) [(212)]	10 to 250 µM	–

Results, then the compound that gave them:

IC50 [1]	IC50 [2]	Compound
0.001 to 1 µM	1 to 10 µM	COc1ccccc1-c1cc(Nc2ccc(C(=O)N[C@@H]3CCCC[C@H]3O)cc2)ncn1 (racemic) [(135)]
0.001 to 1 µM	1 to 10 µM	COc1ccc(-c2cc(Nc3ccc(C(=O)N[C@@H]4CCCC[C@H]4N)cc3)ncn2)cc1 (racemic) [(161)]
1 to 10 µM	–	N[C@@H]1CCCC[C@H]1NC(=O)c1ccc(Nc2cc(-c3cccc(O)c3)ncn2)cc1 (racemic) [(194)]
0.001 to 1 µM	1 to 10 µM	CS(=O)(=O)Nc1cccc(-c2cc(Nc3ccc(C(=O)N[C@@H]4CCCC[C@H]4N)cc3)ncn2)c1 (racemic) [(195)]
1 to 10 µM	–	COC(=O)c1cccc(-c2cc(Nc3ccc(C(=O)N[C@@H]4CCCC[C@H]4N)cc3)ncn2)c1 (racemic) [(201)]
1 to 10 µM	0.001 to 1 µM	COc1ccc(-c2cc(Nc3ccc(C)c(NS(C)(=O)=O)c3)ncn2)cc1 [(3)]
0.001 to 1 µM	0.001 to 1 µM	COc1ccccc1-c1cc(Nc2ccc(NS(=O)(=O)c3ccc(C)cc3)cc2)ncn1 [(5)]
0.001 to 1 µM	1 to 10 µM	COc1ccccc1-c1cc(Nc2ccc(NC(=O)c3ccc(N)cc3)cc2)ncn1 [(8)]
0.001 to 1 µM	0.001 to 1 µM	Cc1ccc(S(=O)(=O)Nc2ccc(Nc3cc(-c4ccc(O)cc4)ncn3)cc2)cc1 [(11)]
0.001 to 1 µM	0.001 to 1 µM	Cc1ccc(Nc2cc(-c3cccc(N)c3)ncn2)cc1NS(C)(=O)=O [(12)]
1 to 10 µM	1 to 10 µM	Nc1cccc(-c2cc(NCCc3ccncc3)ncn2)c1 [(13)]
0.001 to 1 µM	0.001 to 1 µM	COC(=O)c1ccc(Nc2cc(-c3ccccc3OC)ncn2)cc1 [(15)]
1 to 10 µM	1 to 10 µM	Nc1ccc(C(=O)Nc2ccc(Nc3cc(-c4ccc(O)cc4)ncn3)cc2)cc1 [(16)]
1 to 10 µM	10 to 250 µM	CCCN(c1ccc(Nc2cc(-c3ccccc3OC)ncn2)cc1)S(=O)(=O)c1ccc(C)cc1 [(18)]
0.001 to 1 µM	1 to 10 µM	COc1ccccc1-c1cc(Nc2ccc(NC(=O)C(C)(C)C)cc2)ncn1 [(19)]
0.001 to 1 µM	1 to 10 µM	COc1ccccc1-c1cc(Nc2ccc(NC(=O)c3ccccc3N)cc2)ncn1 [(20)]
1 to 10 µM	1 to 10 µM	Nc1ccc(C(=O)Nc2ccc(Nc3cc(-c4cccc(N)c4)ncn3)cc2)cc1 [(21)]
0.001 to 1 µM	1 to 10 µM	COc1ccccc1-c1cc(Nc2ccc(NS(=O)(=O)c3ccc(C(C)C)cc3)cc2)ncn1 [(23)]
1 to 10 µM	1 to 10 µM	COc1ccccc1-c1cc(N(C)c2ccc(N)cc2)ncn1 [(26)]

IC50 [1]	IC50 [2]	Compound
1 to 10 µM	0.001 to 1 µM	COC(=O)CN(c1ccc(Nc2cc(-c3ccc(O)cc3)ncn2)cc1)S(=O)(=O)c1ccc(C)cc1 [(27)]
1 to 10 µM	1 to 10 µM	COC(=O)CN(c1ccc(Nc2cc(-c3ccccc3OC)ncn2)cc1)S(=O)(=O)c1ccc(C)cc1 [(28)]
0.001 to 1 µM	1 to 10 µM	COc1ccccc1-c1cc(Nc2ccc(NC(=O)[C@@H]3CCCCN3C(=O)OC(C)(C)C)cc2)ncn1 [(29)]
0.001 to 1 µM	0.001 to 1 µM	COc1ccc(-c2cc(Nc3ccc(NC(=O)c4ccc(N)cc4)cc3)ncn2)c(OC)c1 [(31)]
1 to 10 µM	1 to 10 µM	COc1ccccc1-c1cc(Nc2ccc(NS(=O)(=O)c3ccc(-c4ccccc4)cc3)cc2)ncn1 [(34)]
0.001 to 1 µM	10 to 250 µM	COc1ccccc1-c1cc(Nc2ccc(NC(=O)C3CC4CCC3C4)cc2)ncn1 (centres unmarked) [(36)]
1 to 10 µM	10 to 250 µM	COc1ccccc1-c1cc(Nc2ccc(NC(=O)C(c3ccccc3)C(C)C)cc2)ncn1 (centres unmarked) [(37)]
0.001 to 1 µM	1 to 10 µM	COc1ccccc1-c1cc(Nc2ccc(NC(=O)NC3CCCCC3)cc2)ncn1 [(38)]
1 to 10 µM	10 to 250 µM	COc1ccc(Cl)cc1-c1cc(Nc2ccc(NC(=O)c3ccc(N)cc3)cc2)ncn1 [(39)]
1 to 10 µM	–	COc1ccccc1-c1cc(Nc2ccc(NC(=O)c3n[nH]c4ccccc34)cc2)ncn1 [(141)]
1 to 10 µM	–	Cc1ccc(Nc2cc(-c3ccccc3CO)ncn2)cc1NS(C)(=O)=O [(166)]
1 to 10 µM	–	COc1ccc(-c2cc(Nc3ccc(NC(=O)[C@@H]4CCCCN4)cc3)ncn2)cc1 [(167)]
1 to 10 µM	–	CN(C)c1cccc(-c2cc(Nc3ccc(NC(=O)[C@@H]4CCCCN4)cc3)ncn2)c1 [(169)]
1 to 10 µM	–	O=C(Nc1ccc(Nc2cc(-c3ccccc3CO)ncn2)cc1)[C@@H]1CCCCN1 [(170)]
1 to 10 µM	–	COc1ccc(-c2cc(Nc3ccc(NC(=O)[C@@H]4CCCCN4)cc3)ncn2)cn1 [(172)]
1 to 10 µM	–	Cc1ccc(Nc2cc(-c3ccc(CO)cc3)ncn2)cc1NS(C)(=O)=O [(175)]
1 to 10 µM	–	CC(=O)Nc1ccc(-c2cc(Nc3ccc(NC(=O)[C@@H]4CCCCN4)cc3)ncn2)cc1 [(177)]
0.001 to 1 µM	–	CS(=O)(=O)Nc1cccc(-c2cc(Nc3ccc(NC(=O)[C@@H]4CCCCN4)cc3)ncn2)c1 [(178)]
